Here are results for two substances from patent US6555663B1, “Prodrugs for selective drug delivery” (priority 1986, dated 2003).

Series [1] concerns RSFFV (Raucher Spleen Focus Forming Virus). Put plainly: Treatment of C3H mice infected with Raucher Spleen Focus Forming Virus: spleen weight. It counts as in vivo. As to the method:
The effectiveness of MTL J-1 was tested in C3H mice against the virus RSFFV (Raucher Spleen Focus Forming Virus) which is a retrovirus and is a valid animal model for HIV infection by application to the above identified mice according to the following procedure:
(§1) Three groups of two month old C3H mice, each comprising four animals were provided as one control and two test groups, wherein, the three-groups (I-III) were subjected to an infectious dose of RSFFV on day one. The first group (I) served as control and received no treatment. Group II and III were treated with […] total body weight concentration of the drug Foscarnet and the test compound MTL J-1, respectively which was administered each day for days 5 through 9. The animals were sacrificed on day 14, where upon the spleens where removed and weighed.
(§2) The tests were redone with a second control group (IA) having no infection of RSFFV and receiving no treatment with any drug, wherein groups I and IA comprise four mice each, and groups II and III comprise five mice each, providing the results summarized below: […]

Series [2] can be described thus: Body weight of treated RSFFV-infected C3H mice (toxicity). It counts as in vivo. As to the method: as §1, §2
Setting [3] is: RSFFV-infected C3H mice, 10 μM total body weight concentration, days 5 through 9.
Setting [4] is: first test (Table 1), RSFFV on day one, 10 μM total body weight concentration each day for days 5 through 9, sacrificed day 14.
The mark [5] stands for this setting: repeat test (Table 2) with a second, uninfected control group IA, same treatment.

Take “5-phosphonoformate-1,5-di-(p-N-2-(N-(4-aminobutyl)-N-ethylisoluminol)-N-ethylaminophenyl)-1,5-bis-(p-N,N-dimethylaniline)-1,3-pentadiene [MTL J-1]”: in series [1] (setting [3]), the “Effectiveness, as demonstrated by the absence of splenomegaly” value is reported as “highly effective”. The results for the “Spleen weight Normalized” value in series [1] (setting [4]) and in series [1] (setting [5]) were “.068 grams” and 0.049 grams, respectively. In addition, the “Toxicity, as demonstrated by an absence of weight loss” value in series [2] (setting [3]) was “nontoxic”. Further, the “Ending Weight” value in series [2] (mouse, in vivo) is on record as 19.2 grams. Further, in series [2] (mouse, in vivo), the Weight change result is “+1.5 grams”.
phosphonoformate [Foscarnet]: the figures for the “Spleen weight Normalized” value in series [1] (setting [4]) and in series [1] (setting [5]) were “.079 grams” and 0.061 grams, respectively. For the same substance, the “Ending Weight” value in series [2] (setting [4]) was determined as 21.2 grams; in series [2] (setting [5]), 19.6 grams. Moreover, the Weight change in series [2] (setting [4]) is 0.15 grams; in series [2] (setting [5]), “+1.6 grams”.
